Source: publication PMC8359946, “Expanding the Substrate Scope of Nitrating Cytochrome P450 TxtE by Active Site Engineering of a Reductase Fusion” (Chembiochem, 2021)

Key:
[1] = biological target: T1, TxtE (His6-TxtE-BM3R fusion) (Streptomyces scabiei, UniProt C9ZDC6); test: UV-Vis difference spectroscopy titration; purified-enzyme nitration assay; format: binding
T1 construct: His6-TxtE-BM3R fusion with the full length heme-reductase linker (27 aa) from CYP102A1

[2] = biological target: T2, TxtE (His6-TxtE-BM3R fusion) (Streptomyces scabiei, UniProt C9ZDC6, R59C); test: UV-Vis difference spectrum (type II); LC-MS nitration assay with purified enzyme; format: binding
T2 construct: His6-TxtE-BM3R(R59C)

N[C@@H](Cc1c[nH]c2ccccc12)C(=O)O [L-tryptophan]
Kd [1]: 84 ± 2 µM

NCCc1c[nH]c2ccccc12 [compound 1, tryptamine]
UV-Vis difference spectrum (type II); LC-MS nitration assay with purified enzyme [2]: a similar spectrum is observed for binding of tryptamine to His6‐TxtE‐BMR3(R59C)
